We go through eleven molecules from US7345070B2, “Peroxisome proliferator activated receptor agonists” (Eli Lilly and Company, priority 2000, dated 2008).

One assay has as its system huPPARα. In words: Cotransfection assay in CV-1 cells, huPPARα. Format: cell-based, human. The note with it: GAL4 chimeric system, relative to PPARα agonist reference molecule. On the procedure:
DNA-dependent binding (ABCD binding) was carried out using SPA technology with PPAR receptors. Tritium-labeled PPARα and PPARγ agonists were used as radioligands for generating displacement curves and IC50 values with compounds of the invention. Cotransfection assays were carried out in CV-1 cells. The reporter plasmid contained an acylCoA oxidase (AOX) PPRE and TK promoter upstream of the luciferase reporter cDNA. Appropriate PPARs and RXRα were constitutively expressed using plasmids containing the CMV promoter. […] In order to eliminate such interference, a GAL4 chimeric system was used in which the DNA binding domain of the transfected PPAR was replaced by that of GAL4, and the GAL4 response element was utilized in place of the AOX PPRE. Cotransfection efficacy was determined relative to PPARα agonist and PPARγ agonist reference molecules. Efficacies were determined by computer fit to a concentration-response curve, or in some cases at a single high concentration of agonist (10 μM). For binding or cotransfection studies with receptors other than PPARs, similar assays were carried out using appropriate ligands, receptors, reporter constructs, etc., for that particular receptor.
These studies were carried out to evaluate the ability of compounds of the invention to bind to and/or activate various nuclear transcription factors, particularly huPPARα (“hu” indicates “human”) and huPPARγ. These studies provide in vitro data concerning efficacy and selectivity of compounds of the invention. Furthermore, binding and cotransfection data for compounds of the invention were compared with corresponding data for marketed compounds that act on either huPPARα or huPPARγ.

In the next assay the test system is HuapoAI transgenic mice. In words: Evaluation of triglyceride and cholesterol level in HuapoAI transgenic mice. Format: in vivo. The note with it: Mus musculus, 168 h, human apoAI transgenic mice, 30 mg/kg oral gavage daily for 7 days; for change in vivo at 30 mg/kg: FPLC area under the curve, over mice receiving vehicle, read-out: % HDLc Increase; for inhibition in vivo at 30 mg/kg: serum 3 h after dosing, read-out: Reduction in Triglyceride Serum Level. The gist of the method:
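Mice got daily oral gavage doses for 7 days, and blood was drawn by cardiac puncture under isoflurane 3 h after the final dose. Serum triglycerides and total cholesterol were measured colorimetrically against standard curves. VLDL, LDL and HDL cholesterol came from Superose 6 FPLC in PBS-EDTA with in-line detection, as peak areas.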

SMILES strings stand for the structures.

`Cc1cccc(OC(C)(Cc2ccc(OCCc3nc(-c4cccs4)oc3C)cc2)C(=O)O)c1` (stereo not shown) [Example 61, 2-Methyl-3-{4-[2-(5-methyl-2-thiophen-2-yl-oxazol-4-yl)-ethoxy]-phenyl}-2-m-tolyloxy-propionic acid]: in the assay with huPPARα, the “huPPARα CTF Efficacy” value is 52%. Also, in the assay on HuapoAI transgenic mice, the change in vivo at 30 mg/kg is 72% and the inhibition in vivo at 30 mg/kg is 17.6%.

Take `Cc1cccc(OC(C)(Cc2ccc(OCCc3nc(C4CCCCC4)oc3C)cc2)C(=O)O)c1` (stereo not shown) [Example 62, 3-{4-[2-(2-Cyclohexyl-5-methyl-oxazol-4-yl)-ethoxy]-phenyl}-2-methyl-2-m-tolyloxy-propionic acid]: in the assay with huPPARα, the “huPPARα CTF Efficacy” value was 101%. Besides, in the assay on HuapoAI transgenic mice, the change in vivo at 30 mg/kg was determined as 72% and the inhibition in vivo at 30 mg/kg came to 2.5%.

`Cc1oc(-c2cccs2)nc1CCOc1ccc(CC(C)(Oc2ccc(F)cc2)C(=O)O)cc1` (stereo not shown) [Example 64, 2-(4-Fluoro-phenoxy)-2-methyl-3-{4-[2-(5-methyl-2-thiophen-2-yl-oxazol-4-yl)-ethoxy]-phenyl}-propionic acid]: the “huPPARα CTF Efficacy” value in the assay on huPPARα worked out at 50%. Also, in the assay with HuapoAI transgenic mice, the change in vivo at 30 mg/kg came out at 66% and the inhibition in vivo at 30 mg/kg was determined as 43%.

As for `Cc1oc(C2CCCCC2)nc1CCOc1ccc(CC(C)(Oc2ccc(F)cc2)C(=O)O)cc1` (stereo not shown) [Example 65, 3-{4-[2-(2-Cyclohexyl-5-methyl-oxazol-4-yl)-ethoxy]-phenyl}-2-(4-fluoro-phenoxy)-2-methyl-propionic acid], the “huPPARα CTF Efficacy” value in the assay on huPPARα is 46%. Also, in the assay with HuapoAI transgenic mice, the change in vivo at 30 mg/kg was 75% and the inhibition in vivo at 30 mg/kg stood at 54%.

For `Cc1oc(C2(C)CCCCC2)nc1CCOc1ccc(C[C@](C)(Oc2ccc(F)cc2)C(=O)O)cc1` [Example 67, (S)-2-(4-Fluoro-phenoxy)-2-methyl-3-(4-{2-[5-methyl-2-(1-methyl-cyclohexyl)-oxazol-4-yl]-ethoxy}-phenyl)-propionic acid], the “huPPARα CTF Efficacy” value in the assay with huPPARα is recorded as 34%. Moreover, in the assay with HuapoAI transgenic mice, the change in vivo at 30 mg/kg was 76% and the inhibition in vivo at 30 mg/kg amounted to 67.8%.

For `Cc1oc(-c2cccs2)nc1CCOc1ccc(CC(C)(Oc2cccc(C(F)(F)F)c2)C(=O)O)cc1` (stereo not shown) [Example 71, 2-Methyl-3-{4-[2-(5-methyl-2-thiophen-2-yl-oxazol-4-yl)-ethoxy]-phenyl}-2-(3-trifluoromethyl-phenoxy)-propionic acid], the “huPPARα CTF Efficacy” value with huPPARα is on record as 142%. In addition, in the assay with HuapoAI transgenic mice, the change in vivo at 30 mg/kg was 34%.

Take `COc1cccc(OC(C)(Cc2ccc(OCCc3nc(C4CCCCC4)oc3C)cc2)C(=O)O)c1` (stereo not shown) [Example 76, 3-{4-[2-(2-Cyclohexyl-5-methyl-oxazol-4-yl)-ethoxy]-phenyl}-2-(3-methoxy-phenoxy)-2-methyl-propionic acid]: the “huPPARα CTF Efficacy” value with huPPARα was 63%. In the assay on HuapoAI transgenic mice, the change in vivo at 30 mg/kg is 26% and the inhibition in vivo at 30 mg/kg was 27.1%.

For the molecule `Cc1oc(-c2ccccc2)nc1CCOc1ccc(CC(C)(Oc2ccc3c(c2)OCO3)C(=O)O)cc1` (stereo not shown) [Example 78, 2-(Benzo[1,3]dioxol-5-yloxy)-2-methyl-3-{4-[2-(5-methyl-2-phenyl-oxazol-4-yl)-ethoxy]-phenyl}-propionic acid], in the assay with huPPARα, the “huPPARα CTF Efficacy” value stood at 52%. Further, in the assay on HuapoAI transgenic mice, the change in vivo at 30 mg/kg stood at 95% and the inhibition in vivo at 30 mg/kg was 64.8%.

As to `Cc1oc(C2CCCCC2)nc1CCOc1ccc(CC(C)(Oc2ccc3c(c2)OCO3)C(=O)O)cc1` (stereo not shown) [Example 80, 2-(Benzo[1,3]dioxol-5-yloxy)-3-{4-[2-(2-cyclohexyl-5-methyl-oxazol-4-yl)-ethoxy]-phenyl}-2-methyl-propionic acid], the “huPPARα CTF Efficacy” value in the assay with huPPARα came out at 84%. Besides, in the assay on HuapoAI transgenic mice, the change in vivo at 30 mg/kg stood at 123% and the inhibition in vivo at 30 mg/kg turned out to be 36.6%.

For the molecule `Cc1oc(CCc2ccccc2)nc1CCOc1ccc(C[C@](C)(Oc2ccccc2)C(=O)O)cc1` [Example 86, (S)-2-Methyl-3-{4-[2-(5-methyl-2-phenethyl-oxazol-4-yl)-ethoxy]-phenyl}-2-phenoxy-propionic acid], the “huPPARα CTF Efficacy” value in the assay on huPPARα is on record as 24%. Also, in the assay with HuapoAI transgenic mice, the change in vivo at 30 mg/kg was 36% and the inhibition in vivo at 30 mg/kg was 30.1%.

With `Cc1oc(-c2ccccc2)nc1CCCc1ccc(CC(C)(Oc2ccccc2)C(=O)O)s1` (stereo not shown) [Example 91, 2-Methyl-3-{5-[3-(5-methyl-2-phenyl-oxazol-4-yl)-propyl]-thiophen-2-yl}-2-phenoxy-propionic acid], in the assay on huPPARα, the “huPPARα CTF Efficacy” value was 47%. In addition, the change in vivo at 30 mg/kg in the assay on HuapoAI transgenic mice turned out to be 46%.
